These compounds were tested against T1, complement C5a receptor 1 (C5aR1) (Homo sapiens, UniProt P21730) (assay: β-arrestin recruitment via C5aR1 activation in live CHO-K1 cells (PathHunter), antagonist mode). Settings: antagonist mode; recombinant hC5a (EC90) as competing natural agonist; live CHO-K1 cells; read-out: [Antagonist] B-arrestin2 recruitment: Average IC50.
T1 construct: β-galactosidase fragment (PathHunter enzyme complementation); host or cells: CHO-K1 (PathHunter CHO-K1 C5aR1 β-arrestin cell line)
T1 sequence (P21730 1-350): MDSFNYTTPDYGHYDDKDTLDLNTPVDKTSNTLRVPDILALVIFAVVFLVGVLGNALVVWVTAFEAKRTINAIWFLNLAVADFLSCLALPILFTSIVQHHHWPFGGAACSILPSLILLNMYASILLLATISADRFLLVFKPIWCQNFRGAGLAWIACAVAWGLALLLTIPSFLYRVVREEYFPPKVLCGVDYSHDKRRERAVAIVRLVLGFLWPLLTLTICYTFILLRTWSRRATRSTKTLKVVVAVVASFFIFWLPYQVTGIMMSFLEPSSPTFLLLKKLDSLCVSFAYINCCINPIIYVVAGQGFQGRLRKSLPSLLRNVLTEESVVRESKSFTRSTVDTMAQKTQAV
Format: cell-based
Procedure: Exemplary compounds were evaluated for classical GPCR β-arrestin recruitment via complement C5a receptor 1 (C5aR1) activation in live CHO-K1 cells. This cell line expresses two fragments of the […] protein coupled to β-arrestin and C5aR1. Complementation of the two fragments allows for the assessment of both C5aR1 agonism and antagonism. Recombinant hC5a (EC90) was used as the competing natural agonist against disclosed compounds (more information on the expanded protocol and cell line can be found on the manufacturer's website: PathHunter® CHO-K1 C5aR1 β-arrestin cell line, DiscoverX, Catalog No. 93-0557C2). […] IC50 ranges: A: IC50≤500 nM; B: 500 nM<IC50≤5 uM; C: 5 uM<IC50≤100 uM; D: IC50>100 uM.
Compound Cc1ncc2cc(N3CCN(c4c(C)cccc4F)CC3)c(=O)n(Cc3ncccc3OC(F)(F)F)c2n1 [compound 110, 6-(4-(2-Fluoro-6-methylphenyl)piperazin-1-yl)-2-methyl-8-((3-(trifluoromethoxy)pyridin-2-yl)methyl)pyrido[2,3-d]pyrimidin-7(8H)-one] has an IC50 of under 500 nM. With COc1ccnc(F)c1N1CCC(c2cc3ncc(C)nc3n(Cc3ncccc3C(F)(F)F)c2=O)CC1 [compound 85, 7-(1-(2-Fluoro-4-methoxypyridin-3-yl)piperidin-4-yl)-3-methyl-5-((3-(trifluoromethyl)pyridin-2-yl)methyl)pyrido[2,3-b]pyrazin-6(5H)-one] the IC50 was under 500 nM. Cc1cnc2cc(C3CCN(c4c(C)cccc4F)CC3)c(=O)n(Cc3ccccc3OC(F)(F)F)c2n1 [compound 78, 7-(1-(2-Fluoro-6-methylphenyl)piperidin-4-yl)-3-methyl-5-(2-(trifluoromethoxy)benzyl)pyrido[2,3-b]pyrazin-6(5H)-one] showed an IC50 of 500 to 5000 nM. Cc1ncc2cc(N3CCN(c4c(C)cccc4F)CC3)c(=O)n(Cc3ncccc3OC(F)F)c2n1 [compound 117, 8-((3-(Difluoromethoxy)pyridin-2-yl)methyl)-6-(4-(2-fluoro-6-methylphenyl)piperazin-1-yl)-2-methylpyrido[2,3-d]pyrimidin-7(8H)-one] gave an IC50 of 500 to 5000 nM. Cc1cnc2cc([C@H]3CC[C@H](c4c(C)cccc4F)CC3)c(=O)n(Cc3ncccc3C(F)(F)F)c2n1 [121a, 7-(trans-4-(2-Fluoro-6-methylphenyl)cyclohexyl)-3-methyl-5-((3-(trifluoromethyl)pyridin-2-yl)methyl)pyrido[2,3-b]pyrazin-6(5H)-one] was tested, and the IC50 was under 500 nM. For COc1cnc2cc(C3CCN(c4c(C)cccc4F)CC3)c(=O)n(Cc3nccnc3C)c2n1 [compound 112, 7-(1-(2-Fluoro-6-methylphenyl)piperidin-4-yl)-3-methoxy-5-((3-methylpyrazin-2-yl)methyl)pyrido[2,3-b]pyrazin-6(5H)-one], the IC50 was 5000 to 100000 nM. Cc1cnc2cc(N3CCC(c4c(C)cccc4F)CC3)c(=O)n(Cc3nccnc3C(F)(F)F)c2n1 [compound 95, 7-(4-(2-Fluoro-6-methylphenyl)piperidin-1-yl)-3-methyl-5-((3-(trifluoromethyl)pyrazin-2-yl)methyl)pyrido[2,3-b]pyrazin-6(5H)-one] showed an IC50 of 500 to 5000 nM. Cc1cnc2cc(N3CCN(c4c(C)cccc4F)CC3)c(=O)n(Cc3nccnc3C)c2n1 [compound 104, 7-(4-(2-Fluoro-6-methylphenyl)piperazin-1-yl)-3-methyl-5-((3-methylpyrazin-2-yl)methyl)pyrido[2,3-b]pyrazin-6(5H)-one] showed an IC50 of 500 to 5000 nM. In the case of Cc1cnc2cc(N3CCC(c4c(C)cccc4F)CC3)c(=O)n(Cc3ncccc3C(F)(F)F)c2n1 [compound 101, 7-(4-(2-Fluoro-6-methylphenyl)piperidin-1-yl)-3-methyl-5-((3-(trifluoromethyl)pyridin-2-yl)methyl)pyrido[2,3-b]pyrazin-6(5H)-one], the IC50 is reported as 500 to 5000 nM. Cc1ncc2cc(C3CCN(c4c(C)cccc4F)CC3)c(=O)n(Cc3ncccc3OC(F)F)c2n1 [compound 105, 8-((3-(Difluoromethoxy)pyridin-2-yl)methyl)-6-(1-(2-fluoro-6-methylphenyl)piperidin-4-yl)-2-methylpyrido[2,3-d]pyrimidin-7(8H)-one] gave an IC50 of under 500 nM. In the case of Cc1nccnc1Cn1c(=O)c(C2CCN(c3ccccc3OC(F)(F)F)CC2)cc2nccnc21 [compound 108, 5-((3-Methylpyrazin-2-yl)methyl)-7-(1-(2-(trifluoromethoxy)phenyl)piperidin-4-yl)pyrido[2,3-b]pyrazin-6(5H)-one], the IC50 is reported as 500 to 5000 nM. Cc1ccc2cc(C3CCN(c4c(C)cccc4F)CC3)c(=O)n(Cc3ncccc3C(F)(F)F)c2n1 [compound 94, 3-(1-(2-Fluoro-6-methylphenyl)piperidin-4-yl)-7-methyl-1-((3-(trifluoromethyl)pyridin-2-yl)methyl)-1,8-naphthyridin-2(1H)-one] was tested, and the IC50 was under 500 nM. Work on Cc1cnc2c(C)c(C3CCN(c4c(C)cccc4F)CC3)c(=O)n(Cc3ncccc3C(F)(F)F)c2n1 [compound 75, 7-(1-(2-Fluoro-6-methylphenyl)piperidin-4-yl)-3,8-dimethyl-5-((3-(trifluoromethyl)pyridin-2-yl)methyl)pyrido[2,3-b]pyrazin-6(5H)-one] yielded an IC50 of 500 to 5000 nM. Compound Cc1cccc(F)c1N1CCN(c2cc3nccnc3n(Cc3ncccc3C(F)(F)F)c2=O)CC1 [compound 96, 7-(4-(2-Fluoro-6-methylphenyl)piperazin-1-yl)-5-((3-(trifluoromethyl)pyridin-2-yl)methyl)pyrido[2,3-b]pyrazin-6(5H)-one] has an IC50 of under 500 nM. Cc1cnc2cc(C3CCN(c4c(C)cccc4F)CC3)c(=O)n(Cc3ccccc3OC(F)F)c2n1 [compound 74, 5-(2-(Difluoromethoxy)benzyl)-7-(1-(2-fluoro-6-methylphenyl)piperidin-4-yl)-3-methylpyrido[2,3-b]pyrazin-6(5H)-one] was tested, and the IC50 was 500 to 5000 nM. Cc1nccnc1Cn1c(=O)c(C2CCN(c3ccccc3OC(F)F)CC2)cc2nccnc21 [compound 111, 7-(1-(2-(Difluoromethoxy)phenyl)piperidin-4-yl)-5-((3-methylpyrazin-2-yl)methyl)pyrido[2,3-b]pyrazin-6(5H)-one] gave an IC50 of 5000 to 100000 nM. Cc1cnc2cc([C@H]3CC[C@H](c4c(C)cccc4F)CC3)c(=O)n(Cc3nccnc3C(F)(F)F)c2n1 [99b, 7-(trans-4-(2-Fluoro-6-methylphenyl)cyclohexyl)-3-methyl-5-((3-(trifluoromethyl)pyrazin-2-yl)methyl)pyrido[2,3-b]pyrazin-6(5H)-one] was tested, and the IC50 was under 500 nM. Cc1cnc2c(C)c(C3CCN(c4c(C)cccc4F)CC3)c(=O)n(Cc3nccnc3C)c2n1 [compound 103, 7-(1-(2-Fluoro-6-methylphenyl)piperidin-4-yl)-3,8-dimethyl-5-((3-methylpyrazin-2-yl)methyl)pyrido[2,3-b]pyrazin-6(5H)-one] showed an IC50 of 500 to 5000 nM. In the case of Cc1ncc2cc(C3CCN(c4c(C)cccc4F)CC3)c(=O)n(Cc3ncccc3C(F)(F)F)c2n1 [compound 81, 6-(1-(2-fluoro-6-methylphenyl)piperidin-4-yl)-2-methyl-8-((3-(trifluoromethyl)pyridin-2-yl)methyl)pyrido[2,3-d]pyrimidin-7(8H)-one], the IC50 is reported as under 500 nM. For Cc1cccc(F)c1N1CCC(c2cc3ncncc3n(Cc3ncccc3C(F)(F)F)c2=O)CC1 [compound 84, 7-(1-(2-Fluoro-6-methylphenyl)piperidin-4-yl)-5-((3-(trifluoromethyl)pyridin-2-yl)methyl)pyrido[3,2-d]pyrimidin-6(5H)-one], the IC50 was over 100000 nM. In the case of Cc1cnc2cc(N3CCN(c4c(C)cccc4F)CC3)c(=O)n(Cc3nccnc3C(F)(F)F)c2n1 [compound 92, 7-(4-(2-Fluoro-6-methylphenyl)piperazin-1-yl)-3-methyl-5-((3-(trifluoromethyl)pyrazin-2-yl)methyl)pyrido[2,3-b]pyrazin-6(5H)-one], the IC50 is reported as under 500 nM. Cc1ncc2cc(C3CCN(c4c(C)cccc4F)CC3)c(=O)n(Cc3nccnc3C)c2n1 [compound 107, 6-(1-(2-Fluoro-6-methylphenyl)piperidin-4-yl)-2-methyl-8-((3-methylpyrazin-2-yl)methyl)pyrido[2,3-d]pyrimidin-7(8H)-one] was tested, and the IC50 was 500 to 5000 nM. COc1ncnc2cc(C3CCN(c4c(C)cccc4F)CC3)c(=O)n(Cc3nccnc3C(F)(F)F)c12 [compound 93, 7-(1-(2-Fluoro-6-methylphenyl)piperidin-4-yl)-4-methoxy-5-((3-(trifluoromethyl)pyrazin-2-yl)methyl)pyrido[3,2-d]pyrimidin-6(5H)-one] showed an IC50 of over 100000 nM. Work on Cc1cccc(F)c1C1CCN(c2cc3nccnc3n(Cc3ncccc3C(F)(F)F)c2=O)CC1 [compound 91, 7-(4-(2-fluoro-6-methylphenyl)piperidin-1-yl)-5-((3-(trifluoromethyl)pyridin-2-yl)methyl) pyrido[2,3-b]pyrazin-6(5H)-one] yielded an IC50 of 500 to 5000 nM. Compound COc1cnc2cc(C3CCN(c4c(C)cccc4F)CC3)c(=O)n(Cc3nccnc3C(F)(F)F)c2n1 [compound 76, 7-(1-(2-Fluoro-6-methylphenyl)piperidin-4-yl)-3-methoxy-5-((3-(trifluoromethyl)pyrazin-2-yl)methyl)pyrido[2,3-b]pyrazin-6(5H)-one] has an IC50 of 500 to 5000 nM. Cc1ncc2cc(C3CCN(c4c(C)cccc4F)CC3)c(=O)n(Cc3ncccc3OC(F)(F)F)c2n1 [compound 102, 6-(1-(2-Fluoro-6-methylphenyl)piperidin-4-yl)-2-methyl-8-((3-(trifluoromethoxy)pyridin-2-yl)methyl)pyrido[2,3-d]pyrimidin-7(8H)-one] was tested, and the IC50 was under 500 nM. In the case of Cc1c(C2CCN(c3ccccc3C(F)(F)F)CC2)c(=O)n(Cc2nccnc2F)c2nccnc12 [compound 77, 5-((3-Fluoropyrazin-2-yl)methyl)-8-methyl-7-(1-(2-(trifluoromethyl)phenyl)piperidin-4-yl)pyrido[2,3-b]pyrazin-6(5H)-one], the IC50 is reported as 500 to 5000 nM.
